17 compounds from US12384769B2, “Heteroaryl-substituted aminoalkyl azole compounds as pesticides” (Elanco Animal Health GmbH, priority 2019, dated 2025) can be followed below.

For orientation: mortality means the share of the test organisms that died.

Holding throughout (type): in vivo
The test system of one test is Ctenocephalides felis. The experiment in a line: Ctenocephalides felis oral test (CTECFE). The note with it: 48 h, 100 ppm in cattle blood, after 2 days. As for the experimental part: Ctenocephalides felis—Oral Test (CTECFE)
(§1) Solvent: dimethyl sulfoxide
To produce a suitable preparation of active compound, 10 mg of active compound are dissolved in 0.5 ml solvent, and the concentrate is diluted with cattle blood to the desired concentration.
Approximately 20 adult unfed cat fleas (Ctenocephalides felis) are placed in flea chambers. The blood chamber, sealed with parafilm on the bottom, are filled with cattle blood supplied with compound solution and placed on the gauze covered top of the flea chamber, so that the fleas are able to suck the blood. The blood chamber is heated to 37° C. whereas the flea chamber is kept at room temperature.
After 2 days mortality in % is determined. 100% means all the fleas have been killed; 0% means none of the fleas have been killed.

Another test has as its system Diabrotica balteata. In words: Diabrotica balteata spray test. Particulars: 168 h, wheat seeds, after 7 days, read-out: activity (efficacy, seedlings grown); for pest or weed control at 160 µg/disc, 500 g/ha: 500 g/ha (=160 μg/well). On the procedure:
Diabrotica balteata—Spray Test
Solvent: 78.0 parts by weight of acetone • • 1.5 parts by weight of dimethylformamide
(§2) Emulsifier: alkylarylpolyglycol ether
To produce a suitable preparation of active compound, 1 part by weight of active compound is mixed with the stated amount of solvent, and the concentrate is diluted with water, containing an emulsifier concentration of 1000 ppm, to the desired concentration. Further test concentrations are prepared by dilution with emulsifier containing water.
Soaked wheat seeds (Triticum aestivum) are placed in a multiple well plate filled with agar and some water and are incubated for 1 day to germinate (5 seeds per well). The germinated wheat seeds are sprayed with a test solution containing the desired concentration of the active ingredient. Afterwards each unit is infected with 10-20 larvae of the banded cucumber beetle (Diabrotica balteata).
After 7 days efficacy in % is determined. 100% means all the seedlings have grown up like in the untreated, uninfected control; 0% means none of the seedlings have grown.

Another test relates to Boophilus microplus. In words: Boophilus microplus injection test (BOOPMI Injection). Particulars: Rhipicephalus microplus, 168 h, injection into adult engorged female ticks, egg deposition after 7 days, read-out: activity (efficacy, infertile eggs); for pest or weed control at 0.02 mg: 20 μg/animal; for pest or weed control at 0.004 mg: 4 μg/animal. As for the experimental part:
Boophilus microplus—Injection Test (BOOPMI Injection)
as §1
To produce a suitable preparation of active compound, 10 mg of active compound are dissolved in 0.5 mL solvent, and the concentrate is diluted with solvent to the desired concentration.
Five adult engorged female ticks (Boophilus microplus) are injected with 1 μL compound solution into the abdomen. The ticks are transferred into replica plates and incubated in a climate chamber.
After 7 days egg deposition of fertile eggs is monitored. Eggs where fertility is not visible are stored in a climate chamber till hatching after about 42 days. An efficacy of 100% means all eggs are infertile; 0% means all eggs are fertile.

For the next test, the system named is Spodoptera frugiperda. In words: Spodoptera frugiperda spray test. The note with it: in Zea mays, 168 h, read-out: activity (mortality). On the procedure:
Spodoptera frugiperda—Spray Test
Solvent: 78.0 parts by weight acetone • 1.5 parts by weight dimethylformamide
as §2
To produce a suitable preparation of active compound, 1 part by weight of active compound is mixed with the stated amount of solvents and is diluted with water, containing an emulsifier concentration of 1000 ppm, to the desired concentration. Further test concentrations are prepared by dilution with emulsifier containing water.
Maize (Zea mays) leaf sections are sprayed with a preparation of the active ingredient of the desired concentration. Once dry, the leaf sections are infested with fall armyworm larvae (Spodoptera frugiperda).
After 7 days mortality in % is determined. 100% means all caterpillars have been killed and 0% means none of the caterpillars have been killed.

The test system of test [1] is Rhipicephalus microplus (strain Parkhurst, resistant against synthetic pyrethroids). The experiment in a line: Rhipicephalus microplus in-vitro contact test, larval cattle tick (BOOPMI Contact). Particulars: 5 μg/cm^2 (=500 g/ha), after 48 hours, read-out: activity (efficacy, larvae dead or moribund). As for the experimental part: Rhipicephalus microplus—in-Vitro Contact Tests Larval Cattle Tick (Strain Parkhurst, Resistant Against Synthetic Pyrethroids) (BOOPMI Contact)
9 mg compound is solved in 1 ml acetone and diluted with acetone to the desired concentration. 250 μL of the test solution is filled in 25 ml glass test tubes and homogeneously distributed on the inner walls by rotation and tilting on a shaking device (2 h at 30 rpm). With a compound concentration of 900 ppm, an inner surface of 44.7 cm^2 and a homogeneous distribution, a dose of 5 μg/cm^2 is achieved.
After the solvent has evaporated, each test tube is filled with 20-50 cattle tick larvae (Rhipicephalus microplus), closed with a perforated lid and incubated in a horizontal position at 85% relative humidity and 27° C. in an incubator. After 48 hours efficacy is determined. The larvae are patted on the ground of the tubes and negative geotactic behaviour is recorded.
An efficacy of 100% means all larvae are dead or moribund; 0% means no larvae are dead or moribund.

Turning to `CC(Nc1nc2cc(C(F)(F)F)cc(Cl)c2o1)c1nc(C(F)(F)F)nn1-c1ncccn1` (racemic) [Example I-048, 7-Chlor-N-{(rac)-1-[1-(pyrimidin-2-yl)-3-(trifluormethyl)-1H-1,2,4-triazol-5-yl]ethyl}-5-(trifluormethyl)-1,3-benzoxazol-2-amin], in the test with Ctenocephalides felis, the mortality at 100 ppm came out at 100%.

Take `C[C@H](Nc1nc2cc(Br)cc(Cl)c2o1)c1ncnn1-c1ncccn1` [Example I-010]: in the test on Diabrotica balteata, the pest or weed control at 100 g/ha worked out at 80% and the pest or weed control at 160 µg/disc, 500 g/ha was found to be 100%. Also, in the test with Boophilus microplus, the pest or weed control at 0.02 mg came to 100%. For the same compound, the mortality at 100 ppm in the test on Ctenocephalides felis amounted to 100%. The mortality at 500 g/ha in the test on Spodoptera frugiperda was 100%.

As for `Cc1nc([C@H](C)Nc2nc3cc(C(F)(F)F)cc(C(F)(F)F)c3o2)n(-c2ncccn2)n1` [Example I-012], in the test with Boophilus microplus, the pest or weed control at 0.004 mg was found to be 100% and the pest or weed control at 0.02 mg was found to be 100%. In the test with Ctenocephalides felis, the mortality at 100 ppm was 100%. Besides, the mortality at 500 g/ha in the test on Spodoptera frugiperda came to 100%.

Take `C[C@H](Nc1nc2cc(C(F)(F)F)cc(C(F)(F)F)c2o1)c1ncnn1-c1ccc(C#N)cn1` [Example I-026]: the pest or weed control at 160 µg/disc, 500 g/ha in the test on Diabrotica balteata worked out at 100%. Moreover, in test [1], the pest or weed control at 5 µg/cm2 worked out at 100%. In the test on Boophilus microplus, the pest or weed control at 0.004 mg was 100% and the pest or weed control at 0.02 mg stood at 100%. Also, in the test on Ctenocephalides felis, the mortality at 100 ppm was found to be 100%. Besides, in the test with Spodoptera frugiperda, the mortality at 100 g/ha worked out at 100% and the mortality at 500 g/ha came out at 100%.

Take `C[C@H](Nc1nc2cc(C(F)(F)F)c(Cl)cc2o1)c1ncnn1-c1ccc(Cl)cn1` [Example I-033]: in test [1], the pest or weed control at 5 µg/cm2 is 100%. This compound gave a mortality at 100 ppm in the test with Ctenocephalides felis of 90%. For the same compound, the mortality at 500 g/ha in the test with Spodoptera frugiperda is 100%.

With `C[C@H](Nc1nc2cc(C(F)(F)F)cc(Cl)c2o1)c1ncnn1-c1ncc(Br)s1` [Example I-035, N-{(1S)-1-[1-(5-bromo-1,3-thiazol-2-yl)-1H-1,2,4-triazol-5-yl]ethyl}-7-chloro-5-(trifluoromethyl)-1,3-benzoxazol-2-amine], in the test with Diabrotica balteata, the pest or weed control at 100 g/ha is 100%. In the test with Boophilus microplus, the pest or weed control at 0.004 mg is 80%. The compound also showed a mortality at 100 ppm in the test on Ctenocephalides felis of 100%.

With `C[C@H](Nc1nc2cc(C(F)(F)F)cc(Cl)c2o1)c1ncnn1-c1cnc(C#N)cn1` [Example I-041, 5-{5-[(1S)-1-{[7-Chlor-5-(trifluormethyl)-1,3-benzoxazol-2-yl]amino}ethyl]-1H-1,2,4-triazol-1-yl}pyrazin-2-carbonitril], in the test with Diabrotica balteata, the pest or weed control at 100 g/ha was 100%. Also, the pest or weed control at 5 µg/cm2 in test [1] was 80%. The mortality at 100 ppm in the test on Ctenocephalides felis is 90%.

As to `C[C@H](Nc1nc2cc(C(F)(F)F)cc(Cl)c2o1)c1ncnn1-c1ncc(Br)cn1` [Example I-044, N-{(1S)-1-[1-(5-Brompyrimidin-2-yl)-1H-1,2,4-triazol-5-yl]ethyl}-7-chlor-5-(trifluormethyl)-1,3-benzoxazol-2-amin], the pest or weed control at 100 g/ha in the test with Diabrotica balteata was 100%. Also, in test [1], the pest or weed control at 5 µg/cm2 was 100%. Further, the pest or weed control at 0.004 mg in the test on Boophilus microplus is 100%. Moreover, the mortality at 100 ppm in the test with Ctenocephalides felis is 100%. For the same compound, the mortality at 100 g/ha in the test on Spodoptera frugiperda is 100%.

`C[C@H](Nc1nc2cc(C(F)(F)F)cc(Cl)c2o1)c1ncnn1-c1nccs1` [Example I-050, 7-Chlor-N-{(1S)-1-[1-(1,3-thiazol-2-yl)-1H-1,2,4-triazol-5-yl]ethyl}-5-(trifluormethyl)-1,3-benzoxazol-2-amin]: in the test on Boophilus microplus, the pest or weed control at 0.004 mg amounted to 80% and the pest or weed control at 0.02 mg is 80%. This compound gave a mortality at 100 ppm in the test with Ctenocephalides felis of 90%.

In the case of `Cc1nc([C@H](C)Nc2nc3cc(C(F)(F)F)cc(Br)c3o2)n(-c2ncccn2)n1` [Example I-053, 7-Bromo-N-{(1S)-1-[3-methyl-1-(pyrimidin-2-yl)-1H-1,2,4-triazol-5-yl]ethyl}-5-(trifluormethyl)-1,3-benzoxazol-2-amin], the pest or weed control at 160 µg/disc, 500 g/ha in the test on Diabrotica balteata was 100%. In the test on Boophilus microplus, the pest or weed control at 0.004 mg came out at 100% and the pest or weed control at 0.02 mg amounted to 100%. Also, the mortality at 100 ppm in the test with Ctenocephalides felis turned out to be 100%.

In the case of `C[C@H](Nc1nc2cc(C(F)(F)F)c(Cl)cc2o1)c1ncnn1-c1ncc(C2COC2)cn1` [Example I-056, 6-Chloro-N-[(1S)-1-{1-[5-(oxetan-3-yl)pyrimidin-2-yl]-1H-1,2,4-triazol-5-yl}ethyl]-5-(trifluoromethyl)-1,3-benzoxazol-2-amine], the pest or weed control at 5 µg/cm2 in test [1] stood at 80%. In the test on Boophilus microplus, the pest or weed control at 0.004 mg came to 80% and the pest or weed control at 0.02 mg was 100%. This compound yielded a mortality at 100 ppm with Ctenocephalides felis of 100%.

As to `C[C@H](Nc1nc2cc(Cl)c(SC3CC3)cc2o1)c1ncnn1-c1ncccn1` [Example I-072, 5-Chlor-6-(cyclopropylsulfanyl)-N-{(1S)-1-[1-(pyrimidin-2-yl)-1H-1,2,4-triazol-5-yl]ethyl}-1,3-benzoxazol-2-amin], the pest or weed control at 5 µg/cm2 in test [1] turned out to be 90%. The compound further displayed a mortality at 100 ppm in the test with Ctenocephalides felis of 100%.

In the case of `CCSc1cc2oc(N[C@@H](C)c3ncnn3-c3ncccn3)nc2cc1Cl` [Example I-073, 5-Chor-6-(ethylsulfanoyl)-N-{(1S)-1-[1-(pyrimidin-2-yl)-1H-1,2,4-triazol-5-yl]ethyl}-1,3-benzoxazol-2-amin], the pest or weed control at 5 µg/cm2 in test [1] was determined as 100%. In addition, the pest or weed control at 0.02 mg in the test on Boophilus microplus was found to be 100%. In the test on Ctenocephalides felis, this compound showed a mortality at 100 ppm of 90%.

In the case of `C[C@H](Nc1nc2cc(C(C)(C)C)cc(Cl)c2o1)c1ncnn1-c1ncccn1` [Example I-075, 5-tert-Butyl-7-chlor-N-{(1S)-1-[1-(pyrimidin-2-yl)-1H-1,2,4-triazol-5-yl]ethyl}-1,3-benzoxazol-2-amin], in the test on Boophilus microplus, the pest or weed control at 0.004 mg was determined as 100% and the pest or weed control at 0.02 mg was determined as 100%. For the same compound, the mortality at 100 ppm in the test with Ctenocephalides felis stood at 80%.

Take `CSc1cc2oc(N[C@@H](C)c3ncnn3-c3ncccn3)nc2cc1Cl` [Example I-076, 5-Chlor-6-(methylsulfanyl)-N-{(1S)-1-[1-(pyrimidin-2-yl)-1H-1,2,4-triazol-5-yl]ethyl}-1,3-benzoxazol-2-amin]: in test [1], the pest or weed control at 5 µg/cm2 amounted to 90%. In the test with Boophilus microplus, the pest or weed control at 0.004 mg turned out to be 100% and the pest or weed control at 0.02 mg was determined as 100%. This compound gave a mortality at 100 ppm in the test on Ctenocephalides felis of 100%.

`C[C@H](Nc1nc2cc(OC(F)(F)F)cc(Cl)c2o1)c1ncnn1-c1ncc(Br)cn1` [Example I-078, N-{(1S)-1-[1-(5-Brompyrimidin-2-yl)-1H-1,2,4-triazol-5-yl]ethyl}-7-chlor-5-(trifluormethoxy)-1,3-benzoxazol-2-amin]: the pest or weed control at 100 g/ha with Diabrotica balteata worked out at 100%. This compound also returned a mortality at 100 ppm in the test on Ctenocephalides felis of 100%.

As for `C[C@H](Nc1nc2c(C(F)(F)F)cc(Br)cn2n1)c1ncnn1-c1ncccn1` [Example I-095, 6-bromo-N-{(1S)-1-[1-(pyrimidin-2-yl)-1H-1,2,4-triazol-5-yl]ethyl}-8-(trifluoromethyl)[1,2,4]triazolo[1,5-a]pyridin-2-amine], in test [1], the pest or weed control at 5 µg/cm2 came out at 80%. Besides, the mortality at 100 ppm with Ctenocephalides felis is 100%.
